In patent US8999957B2, “Heterocyclic compounds as ERK inhibitors” (Merck Sharp & Dohme Corp., priority 2010, dated 2015) one finds IC50 data, which are given here for 61 compounds.

pIC50: −log10 of the molar value. Where two headings read alike, the source gives them in different places.

The target of assay [1] is fully phosphorylated, mouse aERK2 enzyme (Mus musculus (Mouse), UniProt P63085). The experiment in a line: Active ERK2 (aERK) IMAP-FP assay, condition 2. It counts as biochemical. How it is done:
(§1) Active ERK2 (aERK) Assay: (Unless Indicated Otherwise, the Data Provided for aERK was obtained using Condition 1)
Activated ERK2 activity was determined in an IMAP-FP assay (Molecular Devices). […] Phosphorylation reactions were allowed to proceed for 40-45 minutes and were immediately quenched by the addition of 60 μL IMAP detection beads (1:1000 dilutions) in IMAP binding buffer. Plates were read on EnVision reader after 30 minutes binding equilibration.

Assay [2] addresses fully phosphorylated, active Mouse ERK2 protein (Mus musculus (Mouse), UniProt P63085). Description: Active ERK2 (aERK) IMAP assay, condition 1. It counts as biochemical. The conditions noted are these: aERK assay condition 1, 30 μM ATP. The procedure:
as §1
Activated ERK2 activity was also determined in the IMAP assay format using the procedure outlined above. […] Reactions proceeded for 30 minutes before termination by addition of 60 μl IMAP detection beads in binding buffer. Plates were read as above after 30 minute binding equilibration.

The mark [3] stands for this setting: active ERK2, read-out: aErk2 Ic50.

For orientation: pIC50 means −log10 of the IC50, conventionally taken in molar units.

Chain of fully phosphorylated, mouse aERK2 enzyme (P63085 whole entry): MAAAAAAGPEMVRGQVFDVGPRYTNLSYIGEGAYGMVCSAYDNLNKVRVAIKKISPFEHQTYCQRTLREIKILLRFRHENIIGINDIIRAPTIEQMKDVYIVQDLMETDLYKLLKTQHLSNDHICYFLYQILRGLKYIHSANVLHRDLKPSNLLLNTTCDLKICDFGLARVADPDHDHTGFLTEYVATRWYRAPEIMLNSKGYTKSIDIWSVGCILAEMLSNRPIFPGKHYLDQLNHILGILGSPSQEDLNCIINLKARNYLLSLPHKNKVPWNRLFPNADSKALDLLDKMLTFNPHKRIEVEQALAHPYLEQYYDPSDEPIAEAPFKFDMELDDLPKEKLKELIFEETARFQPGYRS
Chain of fully phosphorylated, active Mouse ERK2 protein (P63085 whole entry): as above

As for `O=C(N[C@@H]1CCCN(CC2CC2)C1)c1ccc2[nH]nc(-c3ccncc3)c2c1`, the pIC50 in assay [1] (aERK assay condition 2, 30 uM ATP, read-out: aERK IC50) was 6.69.

In turn, `CC(C)Oc1ccc(-c2n[nH]c3ccc(C(=O)N[C@@H]4CNC[C@H](c5ccccc5)C4)cc23)cc1` had a pIC50 in assay [2] of 7.35.

`Cn1cc(-c2n[nH]c3ccc(C(=O)N[C@@H]4CCCN(Cc5ccccc5F)C4)cc23)ccc1=O`: in assay [2], the pIC50 is 7.68.

Turning to `COc1cccc(F)c1CN1CCC(F)C(NC(=O)c2ccc3[nH]nc(-c4ccc5nccn5c4)c3c2)C1` (stereo not shown), the negative logarithm of the IC50 (pIC50) in assay [2] is 7.79.

In turn, `COC(=O)[C@@H]1CC[C@@H](NC(=O)c2ccc3[nH]nc(-c4ccncc4)c3c2)CN1` had a pIC50 in assay [2] of 6.84.

In assay [2], `O=C(NC1CCCCN(CCc2ccccc2F)C1)c1ccc2[nH]nc(-c3ccncc3)c2c1` (stereo not shown) showed a pIC50 of 8.30.

On to `COC(=O)[C@@H]1CC[C@@H](NC(=O)c2ccc3[nH]nc(-c4ccncc4)c3c2)CN1Cc1ccccc1`, for which the pIC50 in assay [2] is 7.39.

For the compound `COc1cccc(F)c1CN1CCC[C@@H](NC(=O)c2ccc3[nH]nc(-c4ccn5ncnc5c4)c3c2)C1`, the negative logarithm of the IC50 (pIC50) in assay [2] was 7.16.

As to `COc1cccc(F)c1CN1CCC[C@@H](NC(=O)c2ccc3[nH]nc(-c4ccc5nc(C)nn5c4)c3c2)C1`, the negative-log IC50 (pIC50) in assay [2] is 7.65.

On to `COc1cccc(F)c1CN1CCC[C@@H](NC(=O)c2ccc3[nH]nc(-c4ccc5nncn5c4)c3c2)C1`, for which, in assay [2], the negative logarithm of the IC50 (pIC50) was 8.19.

Compound `COc1cccc(F)c1CN1CC(NC(=O)c2ccc3[nH]nc(-c4ccnc(C)c4)c3c2)CCC1C` (stereo not shown) gave a pIC50 in assay [2] of 7.57.

In turn, `COc1cccc(F)c1CN1CCCC(NC(=O)c2ccc3[nH]nc(-c4ccnc(C)c4)c3c2)C1C` (stereo not shown) gave a negative-log IC50 (pIC50) in assay [2] of 7.17.

For `Cc1cc(-c2n[nH]c3ccc(C(=O)N[C@@H]4CCCN(CC(F)(F)c5ccccc5F)C4)cc23)ccn1`, the pIC50 in assay [2] was 6.77.

In assay [2], `Cc1cc(-c2n[nH]c3ccc(C(=O)N[C@@H]4CCCN(CC(F)(F)c5ccccc5)C4)cc23)ccn1` showed a negative-log IC50 (pIC50) of 7.12.

`O=C(NC1CCCCN(CCc2cccc3ccccc23)C1)c1ccc2[nH]nc(-c3ccncc3)c2c1` (stereo not shown) had a negative logarithm of the IC50 (pIC50) in assay [2] of 7.89.

Take `O=C(NC1CCCCN(CCc2cccc(F)c2)C1)c1ccc2[nH]nc(-c3ccncc3)c2c1` (stereo not shown): the negative logarithm of the IC50 (pIC50) in assay [2] was 7.87.

The compound `COc1cccc(F)c1CN1CCC[C@@H](NC(=O)c2ccc3[nH]nc(-c4ccc5ncsc5c4)c3c2)C1` gave a negative-log IC50 (pIC50) in assay [2] of 7.55.

On to `CCc1nnc2ccc(-c3n[nH]c4ccc(C(=O)N[C@@H]5CCCN(Cc6c(F)cccc6OC)C5)cc34)cn12`, for which, in assay [2], the negative-log IC50 (pIC50) is 7.15.

Take `CN1CC(NC(=O)c2ccc3[nH]nc(-c4ccc5nccn5c4)c3c2)CCC1C1CC1` (stereo not shown): the pIC50 in assay [2] is 6.40.

The compound `COc1cccc(F)c1CN1CC(NC(=O)c2ccc3[nH]nc(-c4ccc5nccn5c4)c3c2)CCC1C1CC1` (stereo not shown) showed a negative-log IC50 (pIC50) in assay [2] of 7.31.

As to `O=C(N[C@@H]1CCCN(Cc2ncon2)C1)c1ccc2[nH]nc(-c3ccncc3)c2c1`, in assay [2], the negative-log IC50 (pIC50) was 7.30.

In the case of `O=C(NC1CN(Cc2ccccc2F)CC(F)(F)C1)c1ccc2[nH]nc(-c3ccncc3)c2c1` (stereo not shown), the pIC50 in assay [2] is 6.90.

In assay [2], `O=C(NC1CN(Cc2ccccc2)CC(F)(F)C1)c1ccc2[nH]nc(-c3ccncc3)c2c1` (stereo not shown) showed a pIC50 of 6.84.

For the compound `O=C(NC1CCCCN(CCc2ccc(F)cc2)C1)c1ccc2[nH]nc(-c3ccncc3)c2c1` (stereo not shown), the pIC50 in assay [2] is 7.01.

Consider `COC(=O)[C@H]1CC[C@@H](NC(=O)c2ccc3[nH]nc(-c4ccncc4)c3c2)CN1Cc1ccccc1`, for which, in assay [2], the negative-log IC50 (pIC50) is 6.88.

Compound `O=C(CN1CCCCC(NC(=O)c2ccc3[nH]nc(-c4ccncc4)c3c2)C1)c1ccccc1` (stereo not shown) showed a pIC50 in assay [2] of 7.46.

As for `COc1cccc(F)c1CN1CCC[C@@H](NC(=O)c2ccc3[nH]nc(-c4ccc5nsnc5c4)c3c2)C1`, the pIC50 in assay [2] was 6.76.

In assay [2], `COc1cccc(F)c1CN1CCC[C@@H](NC(=O)c2ccc3[nH]nc(-c4ccc5nonc5c4)c3c2)C1` had a negative logarithm of the IC50 (pIC50) of 6.52.

For the compound `COc1cccc(F)c1CN1CCC[C@@H](NC(=O)c2ccc3[nH]nc(-c4ccc5nc(C(F)(F)F)nn5c4)c3c2)C1`, the pIC50 in assay [2] is 6.08.

Take `COc1cccc(F)c1CN1CCC[C@@H](NC(=O)c2ccc3[nH]nc(-c4nc5ccccc5s4)c3c2)C1`: the negative-log IC50 (pIC50) in assay [2] was 6.53.

As for `CN1CC(Cc2ccccc2)CC(NC(=O)c2ccc3[nH]nc(-c4ccncc4)c3c2)C1` (stereo not shown), the pIC50 in assay [2] is 8.08.

`CN1CC(Cc2c(F)cccc2F)CC(NC(=O)c2ccc3[nH]nc(-c4ccc5nn(C)cc5c4)c3c2)C1` (stereo not shown): the negative logarithm of the IC50 (pIC50) in assay [2] was 8.86.

Regarding `CCN1CC(Cc2c(F)cccc2F)CC(NC(=O)c2ccc3[nH]nc(-c4ccc5nn(C)cc5c4)c3c2)C1` (stereo not shown), the negative-log IC50 (pIC50) in assay [2] is 8.51.

Regarding `Cc1nc2ccc(-c3n[nH]c4ccc(C(=O)N[C@@H]5C[C@H](Cc6c(F)cccc6F)CN(C)C5)cc34)cn2n1`, in assay [2], the pIC50 was 8.84.

Regarding `Cc1nc2ccc(-c3n[nH]c4ccc(C(=O)N[C@@H]5C[C@@H](Cc6c(F)cccc6F)CN(C)C5)cc34)cn2n1`, the negative-log IC50 (pIC50) in assay [2] is 7.32.

`CN1C[C@H](Cc2c(F)cccc2F)C[C@H](NC(=O)c2ccc3[nH]nc(-c4ccn5ccnc5c4)c3c2)C1` gave a pIC50 in assay [2] of 8.80.

Compound `CN1C[C@@H](Cc2c(F)cccc2F)C[C@H](NC(=O)c2ccc3[nH]nc(-c4ccn5ccnc5c4)c3c2)C1` gave a negative logarithm of the IC50 (pIC50) in assay [2] of 6.82.

In turn, `CN1CC(Cc2c(F)cccc2F)CC(NC(=O)c2ccc3[nH]nc(-c4ccn5ncnc5c4)c3c2)C1` (stereo not shown) gave a negative-log IC50 (pIC50) in assay [2] of 8.42.

The compound `CN1C[C@@H](Cc2c(F)cccc2F)C[C@@H](NC(=O)c2ccc3[nH]nc(-c4ccc5nonc5c4)c3c2)C1` had a negative-log IC50 (pIC50) in assay [2] of 8.05.

As for `CN1C[C@H](Cc2c(F)cccc2F)C[C@@H](NC(=O)c2ccc3[nH]nc(-c4ccc5nonc5c4)c3c2)C1`, in assay [2], the pIC50 is 6.00.

Regarding `CN1CC(Cc2c(F)cccc2F)CC(NC(=O)c2ccc3[nH]nc(-c4nc5ccccc5s4)c3c2)C1` (stereo not shown), the pIC50 in assay [2] is 7.65.

`CN1CC(Cc2c(F)cccc2F)CC(NC(=O)c2ccc3[nH]nc(-c4ccc5ncsc5c4)c3c2)C1` (stereo not shown): the pIC50 in assay [2] is 8.57.

In assay [2], `CN1CC(Cc2c(F)cccc2F)CC(NC(=O)c2ccc3[nH]nc(-c4ccc5nsnc5c4)c3c2)C1` (stereo not shown) showed a negative logarithm of the IC50 (pIC50) of 8.49.

In the case of `Cn1cc2cc(-c3n[nH]c4ccc(C(=O)N[C@H]5CCN[C@H](Cc6ccccc6)C5)cc34)ccc2n1`, the pIC50 in assay [2] was 7.47.

Take `COc1cccc(F)c1CN1C[C@H](NC(=O)c2ccc3[nH]nc(-c4ccnc(C)c4)c3c2)CC[C@H]1C(=O)NC1CCCC1`: in assay [1] (setting [3]), the negative logarithm of the IC50 (pIC50) was 6.98.

With `COc1cccc(F)c1CN1C[C@H](NC(=O)c2ccc3[nH]nc(-c4ccc5nn(C)cc5c4)c3c2)CC[C@H]1C(=O)Nc1nccs1`, the pIC50 in assay [1] (setting [3]) was 6.95.

`CCN(CC)C(=O)[C@@H]1CC[C@@H](NC(=O)c2ccc3[nH]nc(-c4ccnc(C)c4)c3c2)CN1Cc1cccs1`: the pIC50 in assay [1] (setting [3]) was 7.55.

Consider `COc1cccc(F)c1CN1C[C@H](NC(=O)c2ccc3[nH]nc(-c4ccc5nn(C)cc5c4)c3c2)CC[C@H]1C(=O)N1CC(F)(F)C1`, for which the pIC50 in assay [1] (setting [3]) was 7.64.

For `[2H]C([2H])([2H])Oc1cccc(F)c1CN1C[C@H](NC(=O)c2ccc3[nH]nc(-c4ccc5nc(C)sc5c4)c3c2)CC[C@H]1C(=O)N1CCN(C(C)=O)CC1`, the negative logarithm of the IC50 (pIC50) in assay [1] (setting [3]) was 7.20.

Regarding `CCN(CC)C(=O)[C@@H]1CC[C@@H](NC(=O)c2ccc3[nH]nc(-c4ccc5nn(C)cc5c4)c3c2)CN1Cc1c(F)cccc1OC`, the negative-log IC50 (pIC50) in assay [1] (setting [3]) is 7.40.

For `COc1cccc(F)c1CN1C[C@H](NC(=O)c2ccc3[nH]nc(-c4ccc5nn(C)cc5c4)c3c2)CC[C@H]1C(=O)N(C)C`, in assay [1] (setting [3]), the negative logarithm of the IC50 (pIC50) was 7.80.

As to `[2H]C([2H])([2H])Oc1cccc(F)c1CN1C[C@H](NC(=O)c2ccc3[nH]nc(-c4ccc5nc(C)sc5c4)c3c2)CC[C@H]1C(N)=O`, the pIC50 in assay [1] (setting [3]) was 8.47.

On to `[2H]C([2H])([2H])Oc1cccc(F)c1CN1C[C@H](NC(=O)c2ccc3[nH]nc(-c4ccc5nc(C)sc5c4)c3c2)CC[C@H]1C(=O)N1CCN(C(=O)OC(C)(C)C)CC1`, for which the negative-log IC50 (pIC50) in assay [1] (setting [3]) is 7.14.

As to `[2H]C([2H])([2H])Oc1cccc(F)c1CN1C[C@H](NC(=O)c2ccc3[nH]nc(-c4ccnc(C)c4)c3c2)CC[C@H]1C(=O)N1CCN(C(=O)OC(C)(C)C)CC1`, the pIC50 in assay [1] (setting [3]) is 7.91.

For `Cc1cc(-c2n[nH]c3ccc(C(=O)NC4CC(Cc5c(F)cccc5F)CN(C)C4)cc23)ccn1` (stereo not shown) [N-(5-(2,6-difluorobenzyl)-1-methylpiperidin-3-yl)-3-(2-methylpyridin-4-yl)-1H-indazole-5-carboxamide], in assay [2], the pIC50 is 8.32.

`COc1cccc(F)c1CN1C[C@H](NC(=O)c2ccc3[nH]nc(-c4ccnc(C)c4)c3c2)CC[C@H]1C(=O)N1CCC(O)CC1` [N-{(3R,6S)-1-(2-fluoro-6-methoxybenzyl)-6-[(4-hydroxypiperidin-1-yl)carbonyl]piperidin-3-yl}-3-(2-methylpyridin-4-yl)-1H-indazole-5-carboxamide]: the negative-log IC50 (pIC50) in assay [2] is 7.84.

With `COc1cccc(F)c1CN1C[C@H](NC(=O)c2ccc3[nH]nc(-c4ccc5nccn5c4)c3c2)C[C@H](C(F)(F)F)C1` [drawing 317], the pIC50 in assay [2] is 7.75.

`O=C(N[C@@H]1CC[C@@H](C(=O)NCc2ccccc2)N(Cc2ccccc2)C1)c1ccc2[nH]nc(-c3ccncc3)c2c1` [drawing 352] gave a negative-log IC50 (pIC50) in assay [2] of 7.32.

Turning to `CCNC(=O)[C@@H]1CC[C@@H](NC(=O)c2ccc3[nH]nc(-c4ccncc4)c3c2)CN1Cc1ccccc1` [drawing 353], the pIC50 in assay [2] was 7.32.

In assay [2], `COc1cccc(F)c1CN1C[C@H](NC(=O)c2ccc3[nH]nc(-c4ccc5nccn5c4)c3c2)C[C@H](C(F)(F)F)C1` [drawing 377] gave a negative-log IC50 (pIC50) of 8.35.

In turn, `CNC(=O)[C@@H]1CC[C@@H](NC(=O)c2ccc3[nH]nc(-c4ccncc4)c3c2)CN1Cc1c(F)cccc1OC` [drawing 383] had a pIC50 in assay [2] of 8.62.
